Test results reported in patent publication US20250382346A1, “NEURONAL PROMOTERS AND USES THEREOF” (priority 2023, published 2025).

Target: T1, rM3Ds (Rattus norvegicus, UniProt P08483, A177S/A238G/A489L/DEL261-437/DEL441-478/E258S/I253V/I483M/INS256[…]/K178L/K182A/K255R/K484R/K486H/L173F/L482A/M480V/R171S/R176Q/R179M/S481M/T174R/T181R/T257A/Y148C)
T1 sequence (P08483 with tags, fused parts or gaps Y148C/R171S/L173F/T174R/R176Q/A177S/K178L/R179M/T181R/K182A/A238G/I253V/K255R/INS256[…]/T257A/E258S/DEL261-437/DEL441-478/M480V/S481M/L482A/I483M/K484R/K486H/A489L): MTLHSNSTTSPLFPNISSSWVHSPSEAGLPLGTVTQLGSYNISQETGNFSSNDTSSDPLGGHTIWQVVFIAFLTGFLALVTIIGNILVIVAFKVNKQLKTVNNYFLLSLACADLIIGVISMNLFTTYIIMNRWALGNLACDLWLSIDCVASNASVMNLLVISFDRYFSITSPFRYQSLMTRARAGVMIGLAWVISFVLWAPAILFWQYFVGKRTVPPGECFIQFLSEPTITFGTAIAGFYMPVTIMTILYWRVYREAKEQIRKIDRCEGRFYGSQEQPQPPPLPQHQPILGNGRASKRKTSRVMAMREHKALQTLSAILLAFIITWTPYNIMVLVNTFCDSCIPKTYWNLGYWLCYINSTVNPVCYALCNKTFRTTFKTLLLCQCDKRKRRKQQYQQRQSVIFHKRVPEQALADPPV
Test: In vivo electrophysiological recording in caudate/putamen of anesthetized macaques, rM3Ds
Parameters: 2A-EYFP (C); expressed in transfected cells; host or cells: neurons (striatal D1-MSNs) of mice or cynomolgus macaques, transduced in vivo by nigral AAV8R12-G88P7-rM3Ds-2A-EYFP
Experimental: • Electrophysiological recording was performed through a recording chamber while the monkey was anesthetized. Neural responses were recorded by a 16-channel linear probe (Plexon Inc, Uprobe) driven by a mechanical microdrive (Alpha Omega, FlexMT). Signals were passed through a head stage (Plexon Inc, HST/16V-G20 LN) and then split and filtered between 300 Hz and 5 kHz to identify spiking activity with an amplifier system (Plexon Inc, OmniPlex). Detected spikes were then sorted by commercially available software (Plexon Inc, Offline Sorter) for further analysis. To quantify the effect of CNO/DCZ injection, neural activity was recorded for 60 minutes following CNO/DCZ injection. The response time-course for each channel was obtained by counting the spikes within every 10-minute window and then normalizing to the maximal.
To determine the effect of CNO/DCZ injection on the direction of signal change, we performed Pearson correlation between neural responses and time using the ‘corr’ function in Matlab, which generates the correlation coefficient ‘r’ and significant level ‘p’. A neuron was considered to have “Increased” activity when r>0 and p<0.05; and considered to have “Decreased” activity when r<0 and p<0.05. Otherwise, neurons were considered to be “Unchanged” in their neural activities. The responses of all increased neurons were then averaged after being normalized by the maximal response (Crowe et al., 2014; Dai and Wang, 2018; Hirokawa et al., 2019) following CNO/DCZ injection, and then plotted as a function of time to generate the normalized population response.
To enable in-vivo verification of the strategy via an opto-tagging approach, AAV virus encoding opsin ChR2 (AAV9-EF1α-DIO-ChR2-EYFP) was injected into the striatum with simultaneous nigral infusion of a retrograde AAV encoding Cre and rM3Ds (AAV8R12-G88P7-HA-rM3Ds-2A-Cre). A total volume of 27 μl (3 μl×9 sites) and 30 μl (3 μl×10 sites) were injected in the SNr and the striatum, respectively. A recording chamber was implanted above the striatum to allow optical stimulation and electrophysiological recording.
Optogenetic verification was conducted six weeks after virus injections. A 16-channel linear probe with an embedded optic fiber (Plexon Inc., Uprobe) was used to deliver light stimulation and record neural responses. A mechanical Microdrive (FlexMT, Alpha Omega, Nazareth, Israel) was used to mount and drive the probe. A blue laser (473 nm, Changchun New Industries Tech, MBL-III-473) was used to generate light stimulation, which was controlled by a DAQ board (National Instruments, PCIe-6321) through the MonkeyLogic toolbox (NIMH version).
Light pulses of 40 Hz that last for 500 ms were used to probe neurons' responses to optical stimulation. […] Responses from these optically identified cells were grouped to generate the normalized population response as a function of time.

[1] = monkey CM048, 38 cells, intramuscular CNO

C[N+]1([O-])CCN(C2=Nc3cc(Cl)ccc3Nc3ccccc32)CC1 [CNO, Clozapine-N-oxide]
cells in caudate/putamen activated (FIG. 12N) (38 total cells, CNO administrations, saline 20%): 50% | cells in caudate/putamen unchanged (FIG. 12N) (38 total cells, CNO administrations, saline 26.7%): 36.8% | cells in caudate/putamen inactivated (FIG. 12N) (38 total cells, CNO administrations, saline 53.3%): 13.2% | neuronal activity of opto-tagged retrogradely labeled D1-MSNs (AAV8R12-G88P7-HA-rM3Ds-2A-Cre plus AAV9-EF1α-DIO-ChR2-EYFP, intramuscular CNO, anesthetized macaques): effectively induced an increase of neuronal activity in retrogradely labeled D1-MSNs | cells in caudate/putamen activated (FIG. 15G) (MPP+ lesioned macaques, CNO 36 cells, DCZ 31 cells, saline 17.9%): 52.8% | cells in caudate/putamen inactivated (FIG. 15G) (MPP+ lesioned macaques, CNO 36 cells, DCZ 31 cells, saline 33.4%): 13.9% | cells in caudate/putamen unchanged (FIG. 15G) (MPP+ lesioned macaques, CNO 36 cells, DCZ 31 cells, saline 48.7%): 33.3% | cells in caudate activated (FIG. 12F) [1]: 65.8% | cells in caudate inactivated (FIG. 12F) [1]: 7.9% | cells in caudate unchanged (FIG. 12F) [1]: 26.3%
